In brackets after ≈: the same amount, converted by molar mass. Read-outs that look alike come from different tables or passages of the source.
What was measured:
[1] = test system: E. coli; assay: MIC in brain heart infusion (BHI) broth; type: cell-based; conditions: Escherichia coli
[2] = test system: Ent. cloac.; assay: MIC in brain heart infusion (BHI) broth; type: cell-based; conditions: strain 009
Excerpt: (§1) Generally twelve 2 fold dilutions of the test compound. are employed, with initial concentration of the test drug being in the range of 50 to 200 mcg/ml. The susceptibility (MIC) of the test organism is accepted as the lowest concentration of compound capable of producing complete inhibition of growth as judged by the naked eye.

[3] = test system: H. influ.; assay: MIC in brain heart infusion (BHI) broth; type: cell-based
Excerpt: as §1

[4] = test system: Kleb. oxy.; assay: MIC in brain heart infusion (BHI) broth; type: cell-based; conditions: strain 024
Excerpt: as §1

[5] = test system: Past. mult.; assay: MIC in brain heart infusion (BHI) broth; type: cell-based; conditions: strain 001
Excerpt: as §1

[6] = test system: Prov. strua.; assay: MIC in brain heart infusion (BHI) broth; type: cell-based; conditions: strain 013
Excerpt: as §1

[7] = test system: Staph. aur.; assay: MIC in brain heart infusion (BHI) broth; type: cell-based
Excerpt: as §1

[8] = test system: Staph. epi; assay: MIC in brain heart infusion (BHI) broth; type: cell-based; conditions: strain 111
Excerpt: as §1

[9] = test system: Strep. faec.; assay: MIC in brain heart infusion (BHI) broth; type: cell-based; conditions: strain 006
Excerpt: as §1

[10] = test system: Strep. pyog.; assay: MIC in brain heart infusion (BHI) broth; type: cell-based; conditions: strain 203
Excerpt: as §1

[11] = test system: Kleb. pn.; assay: MIC in brain heart infusion (BHI) broth; type: cell-based; conditions: for MIC: strain 009
[12] = test system: Neiss. sic.; assay: MIC in brain heart infusion (BHI) broth; type: cell-based; conditions: strain 000
Excerpt: as §1

[13] = test system: Serr. mar.; assay: MIC in brain heart infusion (BHI) broth; type: cell-based; conditions: strain 017
Excerpt: as §1

[14] = test system: Ent. aerog.; assay: MIC in brain heart infusion (BHI) broth; type: cell-based; conditions: strain 040
[15] = Microbiological (bioassay) determination of serum levels after oral dosage; type: in vivo; conditions: mice
Description: Additionally, the compounds (II) and (VI) are tested in vivo by the well-known mouse protection test, or by a microbiological (bioassay) determination of serum levels in a variety of mammals (e.g., mouse, rat, dog).

[16] = strain 036, read-out: MIC Values
[17] = strain 038, read-out: MIC Values
[18] = strain 042, read-out: MIC Values
[19] = strain 051, read-out: MIC Values
[20] = strain 073, read-out: MIC Values
[21] = strain 078, read-out: MIC Values
[22] = strain 081, read-out: MIC Values

Structure (SMILES)	MIC ([1]; strain 129)	MIC ([1]; strain 266)	MIC ([1]; strain 470)	MIC [2]	MIC [3, 16]	MIC [3, 17]	MIC [3, 18]	MIC [3, 19]	MIC [3, 20]	MIC [3, 21]	MIC [3, 22]	MIC [4]	MIC [5]	MIC [6]	MIC ([7]; strain 005)	MIC ([7]; strain 052)	MIC ([7]; strain 400)	MIC [8]	MIC [9]	MIC [10]	also measured
CC[C@H]1OC(=O)[C@H](C)[C@@H](O[C@H]2C[C@@](C)(OC)[C@@H](O)[C@H](C)O2)[C@H](C)[C@@H](O[C@@H]2O[C@H](C)C[C@H](N(C)C)[C@H]2O)[C@](C)(O)C[C@@H](C)CN(C)[C@H](C)[C@@H](O)[C@]1(C)O [(2), 9-Deoxo-9a-methyl-9a-aza-9a-homoerythromycin A]	6.25 µg/mL (≈ 8.34 µM)	6.25 µg/mL (≈ 8.34 µM)	0.78 µg/mL (≈ 1.04 µM)	25 µg/mL (≈ 33.4 µM)	0.78 µg/mL (≈ 1.04 µM)	0.78 µg/mL (≈ 1.04 µM)	0.78 µg/mL (≈ 1.04 µM)	1.56 µg/mL (≈ 2.08 µM)	0.78 µg/mL (≈ 1.04 µM)	0.39 µg/mL (≈ 0.521 µM)	0.78 µg/mL (≈ 1.04 µM)	25 µg/mL (≈ 33.4 µM)	0.1 µg/mL (≈ 0.134 µM)	50 µg/mL (≈ 66.8 µM)	0.2 µg/mL (≈ 0.267 µM)	0.39 µg/mL (≈ 0.521 µM)	25 µg/mL (≈ 33.4 µM)	0.1 µg/mL (≈ 0.134 µM)	1.56 µg/mL (≈ 2.08 µM)	0.025 µg/mL (≈ 0.0334 µM)	
CC[C@H]1OC(=O)[C@H](C)[C@@H](O[C@H]2C[C@@](C)(OC)[C@@H](O)[C@H](C)O2)[C@H](C)[C@@H](O[C@@H]2O[C@H](C)C[C@H](N(C)C)[C@H]2O)[C@](C)(O)C[C@@H](C)C(=O)[C@H](C)[C@@H](O)[C@]1(C)O [(1), Erythromycin A]	> 50 µg/mL	> 50 µg/mL	1.56 µg/mL (≈ 2.13 µM)	> 50 µg/mL								> 50 µg/mL	0.78 µg/mL (≈ 1.06 µM)	> 50 µg/mL	0.05 µg/mL (≈ 0.0681 µM)	0.1 µg/mL (≈ 0.136 µM)	6.25 µg/mL (≈ 8.52 µM)	0.05 µg/mL (≈ 0.0681 µM)	0.39 µg/mL (≈ 0.531 µM)	0.025 µg/mL (≈ 0.0341 µM)	MIC ([1]; strain 125): > 50 µg/mL; MIC [11]: > 50 µg/mL; MIC ([3]; read-out: MIC Values, strain 012): 3.12 µg/mL (≈ 4.25 µM); MIC ([3]; read-out: MIC Values, strain 036): 3.12 µg/mL (≈ 4.25 µM); MIC ([3]; read-out: MIC Values, strain 038): 1.56 µg/mL (≈ 2.13 µM); MIC ([3]; read-out: MIC Values, strain 042): 3.12 µg/mL (≈ 4.25 µM); MIC ([3]; read-out: MIC Values, strain 051): 3.12 µg/mL (≈ 4.25 µM); MIC ([3]; read-out: MIC Values, strain 073): 3.12 µg/mL (≈ 4.25 µM); MIC ([3]; read-out: MIC Values, strain 078): 1.56 µg/mL (≈ 2.13 µM); MIC ([3]; read-out: MIC Values, strain 081): 3.12 µg/mL (≈ 4.25 µM); MIC [12]: 3.12 µg/mL (≈ 4.25 µM); MIC [13]: > 50 µg/mL; MIC [14]: > 50 µg/mL
CC[C@H]1OC(=O)[C@H](C)[C@@H](O[C@H]2C[C@@](C)(OC)[C@@H](O)[C@H](C)O2)[C@H](C)[C@@H](O[C@@H]2O[C@H](C)C[C@H](N(C)C)[C@H]2O)[C@](C)(O)C[C@@H](C)CN(C)[C@H](C)[C@@H](O)[C@H]1C [compound (II), 9-Deoxo-9a-methyl-9a-aza-9a-homoerythromycin B]	25 µg/mL (≈ 34.1 µM)	25 µg/mL (≈ 34.1 µM)	0.39 µg/mL (≈ 0.532 µM)	> 50 µg/mL	3.12 µg/mL (≈ 4.26 µM)	3.12 µg/mL (≈ 4.26 µM)	1.56 µg/mL (≈ 2.13 µM)	3.12 µg/mL (≈ 4.26 µM)	0.2 µg/mL (≈ 0.273 µM)	0.78 µg/mL (≈ 1.06 µM)	1.56 µg/mL (≈ 2.13 µM)	50 µg/mL (≈ 68.2 µM)	0.1 µg/mL (≈ 0.136 µM)	> 50 µg/mL	0.39 µg/mL (≈ 0.532 µM)	0.39 µg/mL (≈ 0.532 µM)	> 50 µg/mL	0.2 µg/mL (≈ 0.273 µM)	1.56 µg/mL (≈ 2.13 µM)	0.025 µg/mL (≈ 0.0341 µM)	MIC ([1]; strain 125): 50 µg/mL (≈ 68.2 µM); MIC [11]: 50 µg/mL (≈ 68.2 µM); MIC Values ([11]; strain 031): 50 µg/mL (≈ 68.2 µM); MIC ([3]; strain 012, read-out: MIC Values): 1.56 µg/mL (≈ 2.13 µM); MIC [13]: > 50 µg/mL; MIC [14]: > 50 µg/mL; absorption after oral dosage [15]: exceptionally well absorbed; serum levels [15]: exceptionally high and long lasting
